Laboratory results: patent publication US6555523B1, “Use of cirsiliol and derivatives to treat infections” (priority 1999, dated 2003)
Values after ≈ are worked out from the molar mass of the structure shown. Values joined by “and” are separate entries in the source; they are usually repeats but may differ in a detail not shown here. Equal entries are not always repeated.

Assays:
in vitro = conditions: human
MDBK cells = conditions: cattle
Procedure: As a comparison, similar tests were conducted using ribavirin.

hepatitis C virus = assay: Human HCV clinical trial, one patient (HCV and HIV infected), naringin 4 g orally three times daily: hepatitis C RNA; type: in vivo; conditions: for Hepatitis C by PCR log 10: Day 0: 6.5; for Hepatitis C RNA ultraquant: Day 0: 2,871,300, ref. <200
Procedure: (§1) Human HCV clinical trial. A human patient suffering from hepatitis C virus was treated according to the following regimen: initial dosing beginning on Day 0 (see Table C), three times daily, the patient ingested 4 g of naringin orally, and then drank hot tea; in later days, the patient ingested, three times daily, 4 g of naringin mixed in hot tea. This patient also suffered from HIV infection.
(§2) The tables below, labeled part 1 through part 4, show data from this patients' bloodwork on Day 0 (when treatment according to this invention was initiated), Day 3 (3 days after Day 0), Day 6 (6 days after Day 0) and Day 9 (9 days after Day 0). In addition, the tables include data from this patients' bloodwork 72 days before Day 0 (“Day −72”).

[1] = Drug cytotoxicity by XTT in monocyte-macrophages, Protocol D2; type: cell-based; conditions: human; macrophage; D2; naringin solubilised in 35% EtOH; read-out: TC50
Procedure: Protocol D2—Assay in fresh human monocyte-macrophages. […] The cells are placed in a 96-well microtiter plate at 37° C. for 2 hours. Non-adherent cells are removed by vigorously washing six times. […] The cultures are carefully monitored for confluency during this incubation period. Infection of the cells is performed with monocytotropic HIV-1 isolates. […] Monocytemacrophage monolayers are infected at a multiplicity of infection (“MOI”) of 0.1.
(§3) At 2 days post-infection, the medium is decanted and the cultures washed twice with complete medium in order to remove excess virus. Fresh medium alone or medium containing the appropriate concentration of drug is added and incubation continued for an additional five days. XTT staining for cytotoxicity and HIV p24 ELISA assays for production of p24 core antigen are performed on Day 7 post infection. This is performed according the ELISA kit assay manufacturers recommendations. Control curves are generated in each assay to accurately quantitate the amount of capsid protein in each sample. Data is obtained by spectrophotometric analysis at 450 nm using a Molecular Devices Vmax plate reader. P24 concentrations are calculated form the optical density values by use of the Molecular Device software package Soft Max.

T, gondii RH = assay: In-vitro anti Toxoplasma gondii activity in HFF, Protocol C; type: cell-based
Procedure: Protocol C—In-vitro testing of anti Toxoplasma gondii activity of Cirsiliol and Naringin. The compounds were tested in an in vitro cell culture assay utilizing human fibroblasts (HFF line) as the host cell. RH strain Toxoplasma gondii that has been transfected with β-galactosidase as a marker for quantitative detection of parasite number (RH Bgal), was used as the challenge organism. The compounds ere dissolved, and then diluted in cell culture medium at least 100 fold for the assays. Controls containing the maximum concentration of solvent used in the assay were run with each test. The active drugs were added and the monolayers were infected immediately at the beginning of each test. Extracellular T. gondii were removed by rinsing the monolayer, and infected host cells remained in contact with the cells for the entire test period. Each test was terminated when at least four parasite doublings could be visually identified in the control monolayers, and parasite numbers were quantitated by standard colorimetric assay for bet galactosidase activity with optical density at 550 nm as the readout. The optical density in this assay has a direct and linear correlation with parasite numbers over a 5-log parasite concentration. Toxicity in the host cells was determined by inspection for cytopathic effects and visual evaluation of cell growth.

HIV Ba-L = assay: Anti-HIV assay in fresh human monocyte-macrophages (p24 ELISA), Protocol D2; type: cell-based; conditions: Human immunodeficiency virus 1, BAL, Macrophage
Procedure: Protocol D2—Assay in fresh human monocyte-macrophages. […] The cells are placed in a 96-well microtiter plate at 37° C. for 2 hours. Non-adherent cells are removed by vigorously washing six times. […] The cultures are carefully monitored for confluency during this incubation period. Infection of the cells is performed with monocytotropic HIV-1 isolates. High titer pools of each of these viruses are harvested from infected cultures of peripheral blood adherent cells and frozen in 1.0 ml aliquots at −80° C. Monocytemacrophage monolayers are infected at a multiplicity of infection (“MOI”) of 0.1.
as §3
Most of the values were based on average values that were obtained from duplicate or triplicate assay wells.

[2] = test system: Bovine Viral Diarrhea Virus; assay: Plaque formation by Bovine Viral Diarrhea Virus in MDBK cultures; type: cell-based, bovine viral diarrhea virus (BVDV); conditions: for Number of plaques: Tests 1-3, control 68; for % Reduction: plaques
Procedure: HCV in vitro assays. No well-accepted model exists for HCV and new compounds for use in the treatment of HCV are frequently tested for activity against bovine viral diarrhea virus (BVDV), a virus which is related to HCV.
A representative compound according to the present invention, naringin (i.e., 7-neohesperidoside, 5, 4′ dihydroxyflavanone) was tested for anti-BVDV activity in MDBK cells.

parainfluenza HA-1 = assay: CPE-inhibition (microscopic) assay, Protocol A2; type: cell-based, parainfluenza virus; conditions: HEp-2, cell Hep2 (cell blank for 3-(4′-bromophenyl) coumarin)
[3] = Human HCV clinical trial, one patient (HCV and HIV infected), naringin 4 g orally three times daily: bloodwork and urine values; type: in vivo; conditions: for Basophils: Day 0: 0; for Basophils / Eosinophils: ref. 0-5%; for Creatinine: Day 0: 0.5, ref. 0.5-1.2; for Eosinophils: Day 0: 1; for WBC: Day 0: 3.2, ref. 4-11 × 10^3; for RBC: Day 0: 4.7, ref. 3.9-5.1 × 10^6; for Monocytes: Day 0: 5, ref. 0-10%; for Hemoglobin: Day 0: 14, ref. 13.0-17.0; for Lymphocytes: Day 0: 29, ref. 15-50%; for MCH: Day 0: 30; for MCHC: Day 0: 34, ref. 32-36%; for Hematocrit: Day 0: 41.7, ref. 36-46%; for Glucose: Day 0: 76; for SGOT: Day 0: 83; for Platelet Count: Day 0: 96, ref. 150-400 × 10^3; for SGPT: Day 0: 112; for Specific Gravity: ref. 1.005-1.035; for pH: ref. 4.5-7.5; for Acetone, Urine / Bilirubin / Glucose, Urine / Leukocyte esterase / Nitrite / Occult Blood / Protein, Urine: ref. Negative
Procedure: as §1, §2

C[C@@H]1O[C@@H](O[C@H]2[C@H](Oc3cc(O)c4c(c3)O[C@H](c3ccc(O)cc3)CC4=O)O[C@H](CO)[C@@H](O)[C@@H]2O)[C@H](O)[C@H](O)[C@H]1O [Naringin, 7-neohesperidoside, 5, 4′ dihydroxyflavanone]
CC50 (in vitro): 100 µM | MTC (minimum cytotoxic drug concentration) (MDBK cells): > 2000 µg/mL | Hepatitis C by PCR log 10 (hepatitis C virus; Day 3): 6.2 | Hepatitis C RNA ultraquant (hepatitis C virus; Day 3): 1,500,900 copies/mL | Hepatitis C by PCR log 10 (hepatitis C virus; Day 6): 5.5 | Hepatitis C RNA ultraquant (hepatitis C virus; Day 6): 340,540 copies/mL | Hepatitis C by PCR log 10 (hepatitis C virus; Day 9): 4.9 | Hepatitis C RNA ultraquant (hepatitis C virus; Day 9): 78,592 copies/mL | patient's hepatitis C PCR values (hepatitis C virus; summary in words, Day 0 to Day 9): drastic reduction | CC50 at 7 days [1]: > 100 µM | IC50 (T, gondii RH): > 100 µM | IC50 (HIV Ba-L; D2, naringin solubilised in 35% EtOH): 86.2 µM | IC50 (HIV Ba-L; D2, naringin solubilised in 95% EtOH): > 100 µM | ID50 ([2]; BVDV plaque formation in MDBK, table footnote, unit from the table's concentration head): 631.39 µg/mL (≈ 1090 µM) | Number of plaques ([2]; naringin 31.25 μg/mL): 65 and 75 and 60 | Number of plaques ([2]; naringin 62.50 μg/mL): 57 and 65 | Number of plaques ([2]; naringin 125.00 μg/mL): 52 and 65 and 61 | Number of plaques ([2]; naringin 250.00 μg/mL): 50 and 58 and 52 | Number of plaques ([2]; naringin 500.00 μg/mL): 32 and 45 and 42 | Number of plaques ([2]; naringin 1000.00 μg/mL): 22 and 25 and 14 | Number of plaques ([2]; naringin 1500.00 μg/mL): 8 and 11 | Number of plaques ([2]; naringin 2000.00 μg/mL): 4 and 3 | % Reduction ([2]; naringin 31.25 μg/mL): 2.39% | % Reduction ([2]; naringin 62.50 μg/mL): 12.64% | % Reduction ([2]; naringin 125.00 μg/mL): 13.12% | % Reduction ([2]; naringin 250.00 μg/mL): 21.91% | % Reduction ([2]; naringin 500.00 μg/mL): 41.92% | % Reduction ([2]; naringin 1000.00 μg/mL): 70.22% | % Reduction ([2]; naringin 1500.00 μg/mL): 86.82% | % Reduction ([2]; naringin 2000.00 μg/mL): 95.11% | IC50 (parainfluenza HA-1): 25 µM | Appearance ([3]; Day 3): Clear | Color ([3]; Day 3): Yellow | Basophils ([3]; Day 3): 1% | Creatinine ([3]; Day 3): 0.5 mg/dL | Eosinophils ([3]; Day 3): 0% | WBC ([3]; Day 3): 3.3 × 10^3 /mm^3 | RBC ([3]; Day 3): 4.71 × 10^6 /mm^3 | Monocytes ([3]; Day 3): 10% | Hemoglobin ([3]; Day 3): 13.9 g/dL | Lymphocytes ([3]; Day 3): 25% | MCH ([3]; Day 3): 30 picograms | MCHC ([3]; Day 3): 34% | Hematocrit ([3]; Day 3): 40.5% | Glucose ([3]; Day 3): 98 mg/dL | SGOT ([3]; Day 3): 62 u/L | Platelet Count ([3]; Day 3): 104 × 10^3 /mm^3 | SGPT ([3]; Day 3): 102 u/L | Specific Gravity ([3]; Day 3): 1.024 | pH ([3]; Day 3): 5 | Acetone, Urine ([3]; Day 3): Negative | Bilirubin ([3]; Day 3): Negative | Glucose, Urine ([3]; Day 3): Negative | Leukocyte esterase ([3]; Day 3): Negative | Nitrite ([3]; Day 3): Negative | Occult Blood ([3]; Day 3): Negative | Protein, Urine ([3]; Day 3): Negative | Appearance ([3]; Day 6): Clear | Basophils ([3]; Day 6): 1% | Creatinine ([3]; Day 6): 0.5 mg/dL | Eosinophils ([3]; Day 6): 1% | WBC ([3]; Day 6): 3.4 × 10^3 /mm^3 | RBC ([3]; Day 6): 4.6 × 10^6 /mm^3 | Monocytes ([3]; Day 6): 6% | Hemoglobin ([3]; Day 6): 13.7 g/dL | Lymphocytes ([3]; Day 6): 28% | MCH ([3]; Day 6): 30 picograms | MCHC ([3]; Day 6): 34% | Hematocrit ([3]; Day 6): 40.1% | Glucose ([3]; Day 6): 93 mg/dL | SGOT ([3]; Day 6): 38 u/L | Platelet Count ([3]; Day 6): 112 × 10^3 /mm^3 | SGPT ([3]; Day 6): 62 u/L | Specific Gravity ([3]; Day 6): 1.017 | pH ([3]; Day 6): 6 | Acetone, Urine ([3]; Day 6): Negative | Bilirubin ([3]; Day 6): Negative | Glucose, Urine ([3]; Day 6): Negative | Leukocyte esterase ([3]; Day 6): Negative | Nitrite ([3]; Day 6): Negative | Occult Blood ([3]; Day 6): Negative | Protein, Urine ([3]; Day 6): Negative | patient's SGOT values ([3]; summary in words): drastic reduction | patient's SGPT values ([3]; summary in words): drastic reduction
